Source: patent US5153218A, “N,N',N'-trisubstituted-bis-amino-3-methylene-2,4(3H,5H)-furandione inhibitors of acyl-CoA:cholesterol-acyl transferase” (American Home Products Corporation, priority 1991, dated 1992)
Like-named read-outs stand apart in the source and are kept apart here.

Experiments:
[1] = system: acyl-coenzyme A: cholesterol acyltransferase; experiment: inhibition of acyl-coenzyme A: cholesterol acyltransferase in vitro (intracellular cholesterol esterification, procedure of Ross et al.); format: cell-based; details: for percent inhibition at a single concentration: unit assumed
Description: The ability of the compounds of this invention to inhibit acyl-coenzyme A: cholesterol acyltransferase was established in vitro by initially showing that they inhibited intracellular cholesterol esterification by subjecting them to the standard experimental test procedure of Ross et al., J. Biol. Chem. 259 815 (1984).

Plasma Cholesterol = experiment: in vivo decrease of plasma cholesterol in cholesterol-cholic acid fed rats; details: oral gavage, four days
Method: In addition, representative compounds were studied in vivo in cholesterol-cholic acid fed rats to determine the percent decrease of cholesterol in their plasma. This study involves rats which are, prior to testing, trained for one week to eat over a four hour time period each day. Upon initiation of the experiment, the rats diet is supplemented with 1.0 percent cholesterol and 0.25 percent cholic acid. The rats are dosed with the test compound by oral gavage just prior to and just following the four hour feeding period. This is repeated for four days. On the fifth day, the rats are sacrificed and the total plasma cholesterol content is determined. The percent decrease in elevated plasma cholesterol levels is calculated in comparison with normal-fed controls.

[2] = system: 14C-Cholesterol Absorption; details: po
Method: Representative compounds were further tested in vivo to establish the percent inhibition of cholesterol absorption. In this study, normal rats were dosed (oral gavage) with ^14 C-cholesterol plus the test compound. Blood samples taken at six hours and/or intermittently up to twenty-four hours were analyzed and the percent inhibition of cholesterol absorption was calculated.

Row | Structure (SMILES) | IC50 [1] | percent inhibition at a single concentration ([1]; Conc. 25 mM (so in the source)) | percent inhibition at a single concentration ([1]; Conc. 50 mM (so in the source)) | other results
1 | CCCCCCCN(Cc1ccc(C(C)(C)C)cc1)C(Nc1ccc(Cl)cc1)=C1C(=O)COC1=O [Example 17, 3-[[(4-Chlorophenyl)amino][[[4-(1,1-dimethylethyl)phenyl]methyl]heptylamino]methylene]-2,4(3H,5H)-furandione] | 24 µM | 84% |  | 
2 | CCCCCCCN(Cc1ccc(C(C)(C)C)cc1)C(Nc1ccc(OC)cc1OC)=C1C(=O)COC1=O [Example 3] | 4 µM |  | 90% | 
3 | CCCCCC(C)N(Cc1ccc(CC(C)(C)C)cc1)C(Nc1ccc(OC)cc1OC)=C1C(=O)COC1=O (centres unmarked) [Example 7, 3-[[(2,4-Dimethoxyphenyl]amino][[[4-(2,2-dimethylpropyl)phenyl]methyl](1-methylhexyl)-amino]methylene]2,4(3H,5H)-furandione] | 0.92 µM | 98% |  | % Decrease in Plasma Cholesterol (Plasma Cholesterol; 40 mg/kg): -26%; % Inhibition of Absorption ([2]; 20 mg/kg): -62%
4 | CCCCCCCN(Cc1ccc(CC(C)(C)C)cc1)C(Nc1c(OC)cc(OC)cc1OC)=C1C(=O)COC1=O [Example 5, 3-[[[4-(2,2-Dimethylpropyl)phenylmethyl]heptylamino][(2,4,6-trimethoxyphenyl)amino]methylene]-2,4(3H,5H)-furandione] | 11 µM | 67% |  | 
5 | CCCCCCCN(Cc1ccc(OCCC(C)C)cc1)C(Nc1ccc(OC)cc1OC)=C1C(=O)COC1=O [Example 6, 3-[[(2,4-Dimethoxyphenyl)amino][(heptyl)[[4-(3-methylbutoxy)phenyl]methyl]amino]methylene]-2,4(3H,5H)-furandione] | 0.4 µM | 99% |  | 
6 | CCCCCCCC/C=C\CCCCCCCCN(Cc1ccc(C(C)(C)C)cc1)C(Nc1ccc(F)cc1)=C1C(=O)COC1=O [Example 18, 3-[[[[4-(1,1-Dimethylethyl)phenyl]methyl]((Z)-9-octadecenyl)amino][(4-fluorophenyl)amino]methylene]-2,4(3H,5H)-furandione] |  | 44% |  | 
7 | CCCCCC(C)N(Cc1ccc(CC(C)(C)C)cc1)C(Nc1cc(C(C)(C)C)c(O)c(C(C)(C)C)c1)=C1C(=O)COC1=O (centres unmarked) [Example 8] | 0.19 µM | 99% |  | % Decrease in Plasma Cholesterol (Plasma Cholesterol; 20 mg/kg): -71%; % Inhibition of Absorption ([2]; 20 mg/kg): -72%
8 | CCCCCCCN(Cc1ccc(C(C)(C)C)cc1)C(Nc1c(C)cc(N(C)C)cc1C)=C1C(=O)COC1=O [Example 19] | 9.5 µM | 77% |  | 
9 | CCCCCCCN(Cc1ccc(CCCCCC)cc1)C(Nc1ccc(C(F)(F)F)cc1)=C1C(=O)COC1=O [Example 16, 3-[[Heptyl[(4-hexylphenyl)methyl]amino][[4-(trifluoromethyl)phenyl]amino]methylene]-2,4(3H,5H)-furandione] |  | 56% |  | 
10 | CCCCCCCC/C=C\CCCCCCCCNC(Nc1ccc(OC)cc1OC)=C1C(=O)COC1=O [Example 4, 3-[[(2,4-Dimethoxyphenyl)amino]((Z)-9-octadecenylamino)methylene]-2,4(3H,5H)-furandione] |  |  | 63% | % Inhibition of Absorption ([2]; 200 mg/kg): -14%
11 | CCCCCCCC/C=C\CCCCCCCCNC(Nc1ccc(F)cc1)=C1C(=O)COC1=O [Example 10, 3-[[(4-Fluorophenyl)amino]((Z)-9-octadecenylamino)methylene]2,4(3H,5H)-furandione] | > 30 µM |  | 61% | 
12 | CCCCCC(C)N(Cc1ccc(OCCC(C)C)cc1)C(Nc1ccc(OC)cc1OC)=C1C(=O)COC1=O (centres unmarked) [Example 21, 3-[[(2,4-Dimethoxyphenyl)amino][[[4-(3-methylbutoxy)phenyl]methyl](1-methylhexyl)amino]methylene]-2,4(3H,5H)-furandione] | 4.9 µM | 97% |  | % Decrease in Plasma Cholesterol (Plasma Cholesterol; 20 mg/kg): -23%
13 | CCCCCCCN(Cc1ccc(C(C)(C)C)cc1)C(Nc1c(C)cc(C)cc1C)=C1C(=O)COC1=O [Example 15, 3-[[[[4-(1,1-Dimethylethyl)phenyl]methyl]heptylamino][(2,4,6-trimethylphenyl)amino]methylene]-2,4(3H,5H)-furandione] |  | 73% |  | 
14 | CCCCCC(C)N(Cc1ccc(C(C)(C)C)cc1)C(Nc1ccc(OC)cc1OC)=C1C(=O)COC1=O (centres unmarked) [Example 20, 3-[[(2,4-Dimethoxyphenyl)amino][[[4-(1,1-dimethylethyl)phenyl]methyl](1-methylhexyl)amino]methylene]-2,4(3H,5H)-furandione] | 1.5 µM | 94% |  | 
15 | CCCCCCCN(Cc1ccc(C(C)(C)C)cc1)C(Nc1ccc(-c2ccccc2)cc1)=C1C(=O)COC1=O [Example 13, 3-[([1,1'-Biphenyl]-4-ylamino)[[[4-(1,1-dimethylethyl)phenyl]methyl]heptylamino]methylene]-2,4(3H,5H)-furandione] | 12 µM |  | 91% | 
16 | CCCCCCC(C)N(Cc1ccc(CC(C)(C)C)cc1)C(Nc1cc(C(C)(C)C)c(O)c(C(C)(C)C)c1)=C1C(=O)COC1=O (centres unmarked) [Example 22, 3-[[[3,5-Bis(1,1-dimethylethyl)-4-hydroxyphenyl]amino][[[4-(2,2-dimethylpropyl)phenyl]methyl](1-methylheptyl)amino]methylene]-2,4(3H,5H)-furandione] | 0.07 µM | 97% |  | % Decrease in Plasma Cholesterol (Plasma Cholesterol; 20 mg/kg): -80%
17 | CCCCCCN(CCCCCC)C(Nc1ccc(F)cc1)=C1C(=O)COC1=O [Example 2, 3-[(Dihexylamino)[(4-fluorophenyl)amino]methylene]-2,4(3H,5H)furandione] |  |  | 57% | 
18 | CCCCCCN(Cc1ccc(CC(C)C)cc1)C(Nc1cc(C(C)(C)C)c(O)c(C(C)(C)C)c1)=C1C(=O)COC1=O [Example 23] |  | 88% |  | 
19 | CCCCCCN(CCCCCC)C(Nc1ccc(-c2ccccc2)cc1)=C1C(=O)COC1=O [Example 12, 3-[([1,1'-Biphenyl]-4-ylamino)(dihexylamino)methylene]-2,4(3H,5H)-furandione] | 27 µM |  | 90% | 
20 | CCCCCCCN(Cc1ccc(C(C)(C)C)cc1)C(Nc1ccc(F)cc1)=C1C(=O)COC1=O [Example 1, 3-[[[[4-(1,1-Dimethylethyl)phenyl]methyl]heptylamino][(4-fluorophenyl)amino]methylene]-2,4(3H,5H)-furandione] | 6 µM |  | 96% | % Inhibition of Absorption ([2]; 200 mg/kg): -74%
21 | CCCCCCCN(Cc1ccc(C(C)(C)C)cc1)C(Nc1ccc(F)cc1F)=C1C(=O)COC1=O [Example 14, 3-[[(2,4-Difluorophenyl)amino][[[4-(1,1-dimethylethyl)phenyl]methyl]heptylamino]methylene]-2,4(3H,5H)-furandione] |  | 39% |  | 
22 | CCCCCCN(CCCCCC)C(Nc1ccc(OC)cc1OC)=C1C(=O)COC1=O [Example 9, 3-[(Dihexylamino)[(2,4-dimethoxyphenyl)amino]methylene]-2,4(3H,5H)-furandione] | 25 µM |  | 87% | 
23 | COc1ccc(NC(=C2C(=O)COC2=O)N(CCc2ccccc2)Cc2ccccc2)c(OC)c1 [Example 11, 3-[[(2,4-Dimethoxyphenyl)amino][(2-phenylethyl)(phenylmethyl)amino]methylene]-2,4(3H,5H)-furandione] | > 30 µM |  | 72% | 
